Data taken from patent US8093387B2, “Process of making crystalline type II aripiprazole” (Synthon BV, priority 2005, dated 2012).
Read-outs that look alike come from different tables or passages of the source.

How the values were obtained:
[1] = as taught by WO 03/26659 (EP 1330249); cited from earlier work
[2] = hygroscopicity of solid state forms of aripiprazole; format: physicochemical; conditions: crystalline Type II, not milled

For O=C1CCc2ccc(OCCCCN3CCN(c4cccc(Cl)c4Cl)CC3)cc2N1 [Type I aripiprazole, 7-[4-[4-(2,3-dichlorophenyl)-1-piperazinyl]butoxy]-3,4-dihydrocarbostyril], the hygroscopicity [1] is given as “significantly hygroscopic”.

With O=C1CCc2ccc(OCCCCN3CCN(c4cccc(Cl)c4Cl)CC3)cc2N1 [Type II aripiprazole, 7-[4-[4-(2,3-dichlorophenyl)-1-piperazinyl]butoxy]-3,4-dihydrocarbostyril] the hygroscopicity [2] was “not hygroscopic”.
